Reference: ChEMBL document CHEMBL2074501, “Inhibition of P-glycoprotein by newer antidepressants” (J Pharmacol Exp Ther, 2003)

Biological target: ATP-dependent translocase ABCB1 (Homo sapiens, UniProt P08183)
Experiment: TP_TRANSPORTER: cell accumulation of calcein in L-MDR1 cells
Type: functional, cell-based
Conditions: not given

ATP-dependent translocase ABCB1, sequence (P08183 whole entry): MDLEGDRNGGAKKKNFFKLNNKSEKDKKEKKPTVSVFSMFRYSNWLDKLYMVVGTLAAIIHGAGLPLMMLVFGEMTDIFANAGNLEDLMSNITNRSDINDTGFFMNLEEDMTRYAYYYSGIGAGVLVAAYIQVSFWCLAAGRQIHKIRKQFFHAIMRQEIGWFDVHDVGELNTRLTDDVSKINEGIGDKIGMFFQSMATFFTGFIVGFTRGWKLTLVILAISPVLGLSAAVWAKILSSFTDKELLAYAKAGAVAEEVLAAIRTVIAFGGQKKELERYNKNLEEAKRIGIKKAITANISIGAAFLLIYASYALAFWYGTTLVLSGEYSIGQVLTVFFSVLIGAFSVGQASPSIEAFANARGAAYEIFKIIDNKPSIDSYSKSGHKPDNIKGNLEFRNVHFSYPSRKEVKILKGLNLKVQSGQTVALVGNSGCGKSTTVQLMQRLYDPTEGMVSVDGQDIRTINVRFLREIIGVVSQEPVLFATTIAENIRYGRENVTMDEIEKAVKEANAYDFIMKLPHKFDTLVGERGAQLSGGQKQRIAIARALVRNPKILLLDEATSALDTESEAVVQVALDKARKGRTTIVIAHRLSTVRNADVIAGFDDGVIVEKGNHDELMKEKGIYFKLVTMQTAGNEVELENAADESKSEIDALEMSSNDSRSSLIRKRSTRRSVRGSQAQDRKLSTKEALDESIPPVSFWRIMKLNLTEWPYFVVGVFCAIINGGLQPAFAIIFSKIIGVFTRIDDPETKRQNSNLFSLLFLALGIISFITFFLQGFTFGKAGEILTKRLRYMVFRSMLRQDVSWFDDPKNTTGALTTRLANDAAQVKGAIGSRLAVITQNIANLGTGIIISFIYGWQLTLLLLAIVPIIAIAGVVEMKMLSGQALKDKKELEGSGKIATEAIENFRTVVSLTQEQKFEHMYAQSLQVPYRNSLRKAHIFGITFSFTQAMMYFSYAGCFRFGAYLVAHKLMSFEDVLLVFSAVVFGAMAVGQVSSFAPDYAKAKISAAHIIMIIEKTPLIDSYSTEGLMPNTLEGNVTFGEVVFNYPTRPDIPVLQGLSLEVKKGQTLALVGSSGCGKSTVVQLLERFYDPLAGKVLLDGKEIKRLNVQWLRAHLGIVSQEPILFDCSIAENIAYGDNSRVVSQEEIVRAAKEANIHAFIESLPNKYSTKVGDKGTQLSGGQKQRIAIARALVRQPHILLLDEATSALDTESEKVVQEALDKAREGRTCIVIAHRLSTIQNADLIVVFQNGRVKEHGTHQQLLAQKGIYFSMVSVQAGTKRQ

IC50 [µM] | Compound
31.8 | CN[C@H]1CC[C@@H](c2ccc(Cl)c(Cl)c2)c2ccccc21 [SERTRALINE]
29.8 | Fc1ccc([C@@H]2CCNC[C@H]2COc2ccc3c(c2)OCO3)cc1 [PAROXETINE]

Same assay, conditions: pig, l-mdr1

Activity | Compound
inhibitor [+] | CNCC(c1ccc(OC)cc1)C1(O)CCCCC1 (configuration not stated) [N-DESMETHYLVENLAFAXINE]
inhibitor [+] | CN(C)CCCC1(c2ccc(F)cc2)OCc2cc(C#N)ccc21 (configuration not stated) [CITALOPRAM]
is not an inhibitor [-] | CN(C)CC(c1ccc(O)cc1)C1(O)CCCCC1 (configuration not stated) [DESVENLAFAXINE]
inhibitor [+] | C/C=C/C[C@@H](C)C(=O)[C@H]1C(=O)N[C@@H](C(C)C)C(=O)N(C)CC(=O)N(C)[C@@H](CC(C)C)C(=O)N[C@@H](C(C)C)C(=O)N(C)[C@@H](CC(C)C)C(=O)N[C@@H](C)C(=O)N[C@H](C)C(=O)N(C)[C@@H](CC(C)C)C(=O)N(C)[C@@H](CC(C)C)C(=O)N(C)[C@@H](C(C)C)C(=O)N1C
inhibitor [+] | NCCC(Oc1ccc(C(F)(F)F)cc1)c1ccccc1 (configuration not stated) [NORFLUOXETINE]

Second part, the compound before the results:

Compound | Activity
COc1cc(OC[C@@H]2CNCC[C@H]2c2ccc(F)cc2)ccc1O [Paroxetine-M] | inhibitor [+]
N[C@H]1CC[C@@H](c2ccc(Cl)c(Cl)c2)c2ccccc21 | inhibitor [+]
COc1ccc(C(CN(C)C)C2(O)CCCCC2)cc1 (configuration not stated) [VENLAFAXINE] | inhibitor [+]
CNCCCC1(c2ccc(F)cc2)OCc2cc(C#N)ccc21 (configuration not stated) [DESMETHYLCITALOPRAM] | inhibitor [+]
COCCCC/C(=N\OCCN)c1ccc(C(F)(F)F)cc1 [FLUVOXAMINE] | inhibitor [+]
